Test results: patent US9163032B2, “Esters of DCPLA and methods of treatment using the same” (Blanchette Rockefeller Neurosciences Institute, priority 2011, dated 2015)

Assays:
GSK-3β = assay: Phospho GSK-3β (Ser-9) Western Blot in ASPD treated primary neurons; format: cell-based, rat
Description: Phospho GSK-3β expression was normalized against total GSK-3β expression. […] Data are represented as mean±SEM. (Student's t test *.p<0.05; and **, p<0.005 n=3).
(§1) Cells were harvested in homogenizing buffer containing 10 mM Tris-Cl (pH 7.4), 1 mM PMSF (phenylmethylsulfonyl fluoride), 1 mM EGTA, 1 mM EDTA, 50 mM NaF, and 20 μM leupeptin, and were lysed by sonication. The homogenate was centrifuged at 100,000×g for 15 min at 4° C. to obtain the cytosolic fraction (supernatant) and membrane (pellet). The pellet was resuspended in the homogenizing buffer by sonication. For whole cell protein isolation from primary neurons, the homogenizing buffer contained 1% Triton X-100. Protein concentration was measured using the Coomassie Plus (Bradford) Protein Assay kit (Pierce, USA). Following quantification, 20 μg of protein from each sample was subjected to SDS-PAGE analysis in a 4-20% gradient Tris-Glycine gel (Invitrogen, USA). The separated protein was then transferred to a nitrocellulose membrane. The membrane was blocked with 5% BSA at room temperature for 15 min and was incubated with primary antibody overnight at 4° C. […] The blot was imaged in an ImageQuant RT-ECL (GE Life Sciences, Piscataway, N.J.) and densitometric quantification was performed using IMAL software (Blanchette Rockefeller Neurosciences Institute, Morgantown, W. Va.). […]

[1] = test system: cultured primary rat hippocampal neurons; assay: Neuroprotection against ASPD induced toxicity, MTT assay, primary neurons; format: cell-based
Description: Viability of cells was measured by MTT assay. MTT (i.e., 3-(4,5-dimethylthiazol-2-yl)-2,5-diphenyltetrazolium bromide) is a tetrazolium salt that is cleaved to formazan by the succinate dehydrogenase, which is only active in viable cells. After solubilization of the formazan, the amount of dye can be quantified with a microplate reader at 570 nm along with a reference of 630 nm. For the MTT assay, 5×10^4 primary rat hippocampal neurons from 18-day-old embryonic Sprague-Dawley rat brains or SH-SY5Y cells were plated on each well of 24-well plates coated with poly-D-lysine. After treatment, the cells were washed with 1× PBS and were incubated with 200 μl of 1 mg/ml MTT solution (Sigma, USA) at 37° C. for 2 hr. Then the MTT-solution was removed and the cells were lysed with 200 μl isopropanol containing 0.04 M HCl and […] for 10 min. Finally, the reading was taken at 570 nm and 630 nm. All the samples were done in triplicate and the data were represented as the percentage of control.
Bryostatin 1, DCPLA, and DCPLA-ME were tested against ASPD-induced cytotoxicity to determine their neuroprotective efficacy.

PKC-ε = PKC-ε level in primary neurons (immunofluorescence, Western Blot); format: cell-based, rat
Description: Cells were grown in two chambered slides (Nunc, USA) at low density. For immunofluorescence staining, the cells were washed with PBS (pH 7.4) and fixed with 4% paraformaldehyde for 4 min. Following fixation, the cells were blocked and permeabilized with 5% serum and 0.3% Triton X-100 in 1×PBS for 30 min. Cells were washed three times with 1×PBS and incubated with primary antibodies for 1 hr at 1:100 dilution. After the incubation, the slides were again washed three times in 1×PBS and were incubated with the FITC anti-mouse IgG and Rhodamine anti-rabbit IgG for 1 hr at 1:400 dilution. The cells were further washed and stained with DAPI (4′,6-diamidino-2′-phenylindole, dihydrochloride) (Thermo Scientific, USA) to stain the nucleus. Finally, the slides were washed and mounted in Pro Long Gold antifade mounting solution (Invitrogen, USA) and were viewed under a LSM 710 Meta confocal microscope (Zeiss) at 350 nm, 490 nm, and 540 nm excitation and 470 nm, 525 nm, and 625 nm emission for DAPI, FITC, and Rhodamine respectively. Six individual fields at 63× oil lens magnification were analyzed for the mean fluorescence intensity (MFI) in each channel.
as §1, with “For whole cell protein isolation from primary neurons, the homogenizing buffer contained 1% Triton X-100.” left out, “USA).” for “USA). The separated protein was then transferred to a nitrocellulose membrane. The membrane was blocked with 5% BSA at room temperature for 15 min and was incubated with primary antibody overnight at 4° C.”

PKC-ε mRNA = PKC-ε mRNA by RT-PCR in primary neurons; format: cell-based, rat; conditions: primary neurons treated with ASPD and/or DCPLA-ME, normalized to β-actin
Description: RNA was isolated from the cells using Trizol reagent (Invitrogen, USA) following the manufacturer's protocol. Briefly, 5 μg of the total RNA was reverse transcribed using oligo (dT) and Superscript III (Invitrogen, USA) at 50° C. for 1 hr. Two μl of the cDNA product was amplified using primers for PKC-ε (Forward Primer—[…], Reverse primer—[…] (Origene, Rockville, Md.)) and β-actin (Promega, USA) for 30 cycles following standard PCR protocols using a 55° C. annealing temperature. The PCR amplicons were analyzed in an E-Gel (Invitrogen, USA). The gel was imaged using a Fuji Image gel scanner (FLA-9000, Fuji Film) and densitometric quantification was performed using IMAL software (Blanchette Rockefeller Neurosciences Institute, Morgantown, W. Va.). Data were represented as normalized ratio of PKC-ε OD (Optical Density) against β-actin OD for three independent experiments.
Primary neurons were treated with ASPD and/or DCPLA-ME. PKC-ε mRNA was quantified by RT-PCR as described above. RNA prepared from control and treated cultured primary rat hippocampal neurons were isolated and reverse transcribed. Individual cDNA was amplified for PKC-ε and β-actin. PKC-ε expression was normalized to β-actin.

Compound	phosphorylation of the Ser-9 residue of GSK-3β (GSK-3β; ASPD (50 nM) + DCPLA-ME (100 nM))	more viable than Bryostatin 1-treated cells ([1]; 50 nM ASPD, DCPLA-ME 100 nM vs Bryostatin 1 0.27 nM) [%]	more viable than DCPLA-treated cells ([1]; 50 nM ASPD, DCPLA-ME 100 nM vs DCPLA 10 μM) [%]	PKC-ε protein level (Western Blot) (PKC-ε; ASPD-treated primary neurons, 100 nM DCPLA-ME)	PKC-ε transcript levels (PKC-ε mRNA)	GSK-3β activation state (GSK-3β; ASPD 50 nM)	viability of primary neurons ([1]; 50 nM ASPD alone, 20 hr) [%]	PKC-ε immunofluorescence level (PKC-ε; ASPD, 20 hr, primary neurons)
CCCCCC1CC1CC1CC1CCCCCCCC(=O)OC (stereo not drawn) [DCPLA-ME, DCPLA methyl ester]	restored phosphorylation of the Ser-9 residue of GSK-3β to normal levels	16	8	restored the PKC-ε protein level to normal	increased PKC-ε transcript levels			
ASPD: Amylospheroids from Aβ1-42, 100 kDa filter retentate, containing 39 monomers on average					did not change PKC-ε mRNA significantly	activated GSK-3β	57.6±1.6	60.81±5.85 % compared to control
